Data reported in article PMC5784442 (ACS catalysis, 2017).

Key:
[1] = molecular target: T1, ‘TesA (Escherichia coli, UniProt P0ADA1); experiment: DTNB assay at […] nm, free CoA release; assay type: biochemical; conditions: 0-120 µM substrate, 40 nM enzyme
T1 sequence (P0ADA1 27-208): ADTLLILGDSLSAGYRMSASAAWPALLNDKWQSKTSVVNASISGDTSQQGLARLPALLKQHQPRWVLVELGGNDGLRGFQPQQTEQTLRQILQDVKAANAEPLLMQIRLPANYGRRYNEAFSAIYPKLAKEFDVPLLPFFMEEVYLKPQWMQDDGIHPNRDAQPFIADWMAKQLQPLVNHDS

[2] = molecular target: T1, ‘TesA; experiment: X-ray crystal structure, […] A; assay type: binding; conditions: 3 mM octanoic acid, Homo-PIPES pH 5.0

Row | Structure (SMILES) | DTNB assay at 412 nm, free CoA release [1] | X-ray crystal structure, 1.65 A [2]
1 | CCCCCCCCCCCC(=O)SCCNC(=O)CCNC(=O)[C@H](O)C(C)(C)COP(=O)(O)OP(=O)(O)OC[C@H]1O[C@@H](n2cnc3c(N)ncnc32)[C@H](O)[C@@H]1OP(=O)(O)O [C12-CoA, dodecanoyl-CoA] | highest in vitro ‘TesA WT activity (Figure 7A) was observed for C12-CoA, C14-CoA and C16-CoA | –
2 | CCCCCCCC(=O)SCCNC(=O)CCNC(=O)[C@H](O)C(C)(C)COP(=O)(O)OP(=O)(O)OC[C@H]1O[C@@H](n2cnc3c(N)ncnc32)[C@H](O)[C@@H]1OP(=O)(O)O [C8-CoA, octanoyl-CoA] | ‘TesA WT and R3.M4 activity on C8-CoA | –
3 | CCCCCCCC(=O)O [C8, octanoic acid] | – | Crystal structures of WT ‘TesA and R3.M4 bound to octanoic acid were solved
